# Measurements taken from ChEMBL document CHEMBL2440019, “Discovery of an in vivo chemical probe of the lysine methyltransferases G9a and GLP” (J Med Chem, 2013).
# Legend:
# [1] = tested on: Liver; test: Half life in mouse liver microsomes; type: ADME, Microsome
# [2] = tested on: Plasma; test: Cmax in Swiss albino mouse plasma at 5 mg/kg, ip; type: ADME, organism-based; parameters: dose 5 mg/kg, route intraperitoneal; settings: in vivo
# [3] = tested on: Plasma; test: AUC (0 to 24 hrs) in Swiss albino mouse plasma at 5 mg/kg, ip; type: ADME, organism-based; parameters: time < 24 hr, dose 5 mg/kg, route intraperitoneal; settings: in vivo
# [4] = target: T1, Histone-lysine N-methyltransferase EHMT2 (Homo sapiens, UniProt Q96KQ7)
# T1 sequence (Q96KQ7 whole entry): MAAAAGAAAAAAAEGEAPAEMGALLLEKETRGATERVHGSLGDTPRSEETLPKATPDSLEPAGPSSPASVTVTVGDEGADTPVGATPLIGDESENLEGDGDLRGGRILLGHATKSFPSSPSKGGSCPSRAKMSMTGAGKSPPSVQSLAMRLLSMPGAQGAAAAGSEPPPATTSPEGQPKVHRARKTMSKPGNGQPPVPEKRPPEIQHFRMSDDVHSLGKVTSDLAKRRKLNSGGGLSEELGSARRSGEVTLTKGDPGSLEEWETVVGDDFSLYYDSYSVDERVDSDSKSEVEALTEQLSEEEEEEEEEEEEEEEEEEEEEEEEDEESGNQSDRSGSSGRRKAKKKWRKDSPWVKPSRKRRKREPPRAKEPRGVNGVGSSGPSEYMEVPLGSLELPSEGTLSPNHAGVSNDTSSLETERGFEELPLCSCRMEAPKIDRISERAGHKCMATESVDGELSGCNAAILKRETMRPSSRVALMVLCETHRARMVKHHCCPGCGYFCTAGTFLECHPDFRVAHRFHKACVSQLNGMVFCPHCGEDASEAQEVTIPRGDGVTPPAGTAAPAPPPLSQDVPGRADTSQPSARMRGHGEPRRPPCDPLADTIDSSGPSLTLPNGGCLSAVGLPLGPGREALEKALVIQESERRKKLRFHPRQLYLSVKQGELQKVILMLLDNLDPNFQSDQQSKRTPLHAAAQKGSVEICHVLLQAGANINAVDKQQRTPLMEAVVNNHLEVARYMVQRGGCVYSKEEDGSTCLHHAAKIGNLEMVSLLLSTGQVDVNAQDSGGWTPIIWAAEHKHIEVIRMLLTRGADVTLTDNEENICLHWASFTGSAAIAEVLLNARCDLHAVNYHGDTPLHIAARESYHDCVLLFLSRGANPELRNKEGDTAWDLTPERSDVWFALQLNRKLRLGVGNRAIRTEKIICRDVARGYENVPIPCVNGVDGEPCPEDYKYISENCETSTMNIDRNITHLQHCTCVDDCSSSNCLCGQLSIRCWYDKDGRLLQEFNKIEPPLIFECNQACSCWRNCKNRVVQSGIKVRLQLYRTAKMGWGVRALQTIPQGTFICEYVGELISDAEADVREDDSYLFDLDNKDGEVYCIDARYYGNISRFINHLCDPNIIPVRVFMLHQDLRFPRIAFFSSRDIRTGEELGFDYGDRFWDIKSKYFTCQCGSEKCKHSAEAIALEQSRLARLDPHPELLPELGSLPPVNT
# Description: Inhibition of lysine methyltransferase G9a (unknown origin) using [3H]-SAM as substrate after 0.25 hrs by scintillation proximity assay
# [5] = target: T1, Histone-lysine N-methyltransferase EHMT2; remark: listed apart in the source
# Description: Inhibition of lysine methyltransferase G9a in human MDA-MB-231 cells assessed as reduction of H3K9me2 cellular level by immunofluorescence in-cell Western assay
# [6] = tested on: MDA-MB-231; test: cells; settings: Homo sapiens, MDA-MB-231, 48 h
# Description: Cytotoxicity against human MDA-MB-231 cells after 48 hrs by Alamar Blue assay
# [7] = tested on: Nucleic Acid; test: Ratio of drug level in brain to plasma in Swiss albino mouse at 5 mg/kg, ip; type: ADME, organism-based; parameters: dose 5 mg/kg, route intraperitoneal
# [8] = AUC (0 to 24 hrs) in Swiss albino mouse brain at 5 mg/kg, ip; type: ADME, organism-based; parameters: time < 24 hr, dose 5 mg/kg, route intraperitoneal
# [9] = Cmax in Swiss albino mouse brain at 5 mg/kg, ip; type: ADME, organism-based; parameters: dose 5 mg/kg, route intraperitoneal
# [10] = tested on: PANC-1; test: Cytotoxicity against human PANC1 cells after 48 hrs by Alamar Blue assay; type: cell-based; settings: PANC-1, 48 h
# [11] = tested on: U2OS; test: Cytotoxicity against human U2OS cells after 48 hrs by Alamar Blue assay; type: cell-based
# [12] = target: Histamine H3 receptor (Homo sapiens, UniProt Q9Y5N1); test: Binding affinity to histamine H3 receptor (unknown origin) by radioligand binding assay
# Sequence of Histamine H3 receptor (Q9Y5N1 whole entry): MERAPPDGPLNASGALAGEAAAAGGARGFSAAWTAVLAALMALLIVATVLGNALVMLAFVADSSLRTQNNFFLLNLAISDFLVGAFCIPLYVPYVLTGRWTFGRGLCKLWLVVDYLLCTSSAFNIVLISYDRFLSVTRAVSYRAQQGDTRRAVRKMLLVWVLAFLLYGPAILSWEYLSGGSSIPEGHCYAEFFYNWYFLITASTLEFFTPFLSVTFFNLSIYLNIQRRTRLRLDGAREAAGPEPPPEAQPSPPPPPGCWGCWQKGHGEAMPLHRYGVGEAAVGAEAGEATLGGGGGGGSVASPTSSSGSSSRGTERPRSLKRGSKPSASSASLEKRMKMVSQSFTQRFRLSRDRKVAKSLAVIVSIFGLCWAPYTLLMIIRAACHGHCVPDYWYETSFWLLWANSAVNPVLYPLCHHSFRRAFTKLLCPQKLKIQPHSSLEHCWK
# [13] = target: T2, Alpha-2C adrenergic receptor (Homo sapiens, UniProt P18825); test: Binding affinity to adrenergic alpha2C receptor (unknown origin) by radioligand binding assay
# T2 sequence (P18825 whole entry): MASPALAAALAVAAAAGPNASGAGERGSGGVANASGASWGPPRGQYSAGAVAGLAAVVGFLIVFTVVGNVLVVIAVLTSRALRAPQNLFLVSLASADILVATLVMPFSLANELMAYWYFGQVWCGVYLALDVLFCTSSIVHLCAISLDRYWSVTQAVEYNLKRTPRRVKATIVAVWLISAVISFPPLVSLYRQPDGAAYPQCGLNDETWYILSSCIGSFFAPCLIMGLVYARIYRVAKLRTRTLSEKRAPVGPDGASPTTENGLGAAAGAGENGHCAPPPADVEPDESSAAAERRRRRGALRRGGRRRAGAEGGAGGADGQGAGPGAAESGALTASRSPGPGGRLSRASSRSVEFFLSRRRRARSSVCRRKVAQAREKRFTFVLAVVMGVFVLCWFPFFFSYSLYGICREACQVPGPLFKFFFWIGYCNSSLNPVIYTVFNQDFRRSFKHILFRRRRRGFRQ
# [14] = Binding affinity to sigma 2 receptor (unknown origin) by radioligand binding assay; parameters: species or system Homo sapiens
# [15] = tested on: PC-3; test: Cytotoxicity against human PC3 cells after 48 hrs by Alamar Blue assay; type: cell-based; settings: PC-3, 48 h
# [16] = target: T3, Alpha-1D adrenergic receptor (Homo sapiens, UniProt P25100); test: Binding affinity to adrenergic alpha1D receptor (unknown origin) by radioligand binding assay
# T3 sequence (P25100 whole entry): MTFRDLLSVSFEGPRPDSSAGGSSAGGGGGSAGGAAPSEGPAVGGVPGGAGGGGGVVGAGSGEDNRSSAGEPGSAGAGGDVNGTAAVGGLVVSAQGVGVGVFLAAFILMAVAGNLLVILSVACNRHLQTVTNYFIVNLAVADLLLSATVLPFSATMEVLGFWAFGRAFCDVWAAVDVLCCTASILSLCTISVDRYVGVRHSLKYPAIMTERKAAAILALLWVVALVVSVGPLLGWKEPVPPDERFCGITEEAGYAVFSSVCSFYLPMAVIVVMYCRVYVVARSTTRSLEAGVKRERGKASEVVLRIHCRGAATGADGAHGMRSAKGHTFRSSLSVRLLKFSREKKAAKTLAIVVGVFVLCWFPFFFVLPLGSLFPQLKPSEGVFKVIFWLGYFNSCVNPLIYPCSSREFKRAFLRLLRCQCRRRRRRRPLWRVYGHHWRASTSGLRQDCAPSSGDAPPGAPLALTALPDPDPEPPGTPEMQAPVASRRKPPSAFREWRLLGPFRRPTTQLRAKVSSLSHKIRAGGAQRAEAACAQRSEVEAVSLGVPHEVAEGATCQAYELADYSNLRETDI
structure (smiles),measurement,setting,value
COc1cc2c(NC3CCN(C(C)C)CC3)nc(C3CCCCC3)nc2cc1OCCCN1CCCC1,t1/2,[1],1.22 h
same,Cmax,[2],66 ng/mL
same,AUC,[3],404 ng·h/mL
COc1cc2c(NC3CCN(C(C)C)CC3)nc(N3CCCCC3)nc2cc1OCCCN1CCCC1,IC50,[4],< 2.5 nM
COc1cc2c(NC3CCN(C(C)C)CC3)nc(N3CCCCCC3)nc2cc1OCCCN1CCCC1,IC50,[4],< 2.5 nM
COc1cc2c(NC3CCN(C(C)C)CC3)nc(C3CCOCC3)nc2cc1OCCCN1CCC(F)(F)CC1,t1/2,[1],0.167 h
same,IC50,[4],> 50000 nM
COc1cc2c(NC3CCN(C(C)C)CC3)nc(C3CCCCC3)nc2cc1OCCCN1CCC(F)(F)CC1,IC50,[4],> 26000 nM
COc1cc2c(NC3CCN(C(C)C)CC3)nc(C3CCOCC3)nc2cc1OCCCN1CCCC1,t1/2,[1],0.267 h
same,IC50,[5],310 nM
same,IC50,[4],9 nM
same,EC50,[6],> 50000 nM
COc1cc2c(NC3CCN(C4CC4)CC3)nc(N3CCS(=O)(=O)CC3)nc2cc1OCCCN1CCCC1,IC50,[5],590 nM
same,IC50,[4],4 nM
same,EC50,[6],> 50000 nM
COc1cc2c(NC3CCN(C4CC4)CC3)nc(N3CCC(F)(F)CC3)nc2cc1OCCCN1CCCC1,IC50,[5],310 nM
same,IC50,[4],3 nM
same,EC50,[6],14700 nM
COc1cc2c(NC3CCN(C(C)C)CC3)nc(N3CC(F)(F)C(F)(F)C3)nc2cc1OCCCN1CCCC1,t1/2,[1],> 1.5 h
same,IC50,[4],26 nM
COc1cc2c(NC3CCN(C(C)C)CC3)nc(N3CCS(=O)(=O)CC3)nc2cc1OCCCN1CCCC1,IC50,[4],14 nM
COc1cc2c(NC3CCN(C(C)C)CC3)nc(N3CCOCC3)nc2cc1OCCCN1CCCC1,t1/2,[1],> 1.5 h
same,Cmax,[2],731 ng/mL
same,AUC,[3],1061 ng·h/mL
same,EC50,[6],23700 nM
same,BPR,[7],0.68
same,AUC(0-t) at 24 h,[8],721 ng·h/mL
same,Cmax,[9],99 ng/mL
COc1cc2c(NC3CCN(C(C)C)CC3)nc(N3CCC(F)(F)CC3)nc2cc1OCCCN1CCCC1,t1/2,[1],> 1.5 h
same,Cmax,[2],947 ng/mL
same,EC50,[10],3500 nM
same,EC50,[11],6000 nM
same,Ki,[12],45 nM
same,AUC,[3],1265 ng·h/mL
same,EC50,[6],16700 nM
same,BPR,[7],0.33
same,Ki,[13],> 10000 nM
same,AUC(0-t) at 24 h,[8],412 ng·h/mL
same,Ki,[14],900 nM
same,Cmax,[9],68 ng/mL
same,EC50,[15],8900 nM
same,Ki,[16],4500 nM
